This passage reports GI50 and TGI results from PubChem BioAssay (NCI).

Structures are written as SMILES. Several values for one entry are separate records, joined by “and”; a condition that tells them apart may be missing. Equal entries are not always repeated.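 Tested at 5 concentrations; 48 h exposure; 96-well plates; endpoints linearly interpolated, else capped at highest concentration. At the GI50, growth is halved. TGI denotes the concentration required for complete inhibition of growth.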

Among the test systems are 786-0 renal; DU-145 prostate; EKVX NSCLC; HOP-92 NSCLC; IGROV1 ovarian; K-562 leukemia; LOX IMVI melanoma; NCI-H460 lung; SK-OV-3 ovarian; SN12C renal.
Common to all, as to assay: inhibition of tumour cell growth, NCI panel, 48 h

For the compound `Cc1cc(Cl)ccc1NC(=O)c1cc2ccccc2cc1O`, the GI50 with 786-0 renal is 1.19 µM; in the experiment on DU-145 prostate, 1.15 µM; with EKVX NSCLC, 2.61 µM; with HOP-92 NSCLC it was 0.146 µM; in the experiment on IGROV1 ovarian, 0.993 µM; in the experiment on K-562 leukemia, 0.419 µM. Further, the GI50 is 0.539 µM in the experiment on LOX IMVI melanoma, 0.511 µM in the experiment with NCI-H460 lung, 2.11 µM in the experiment on SK-OV-3 ovarian and 0.377 µM in the experiment with SN12C renal. Also, the TGI with 786-0 renal was more than 100 µM; in the experiment on DU-145 prostate, more than 100 µM; in the experiment with EKVX NSCLC it was more than 100 µM; in the experiment on HOP-92 NSCLC, 0.545 µM; in the experiment with IGROV1 ovarian, more than 100 µM; with K-562 leukemia, more than 100 µM. The TGI with LOX IMVI melanoma, with NCI-H460 lung, in the experiment on SK-OV-3 ovarian and in the experiment on SN12C renal was more than 100 µM throughout.
With `C=C1CC/C=C(\C)C(=O)C[C@@H]2[C@@H]1CC2(C)C`, the TGI with 786-0 renal was 6.69 µM; with DU-145 prostate, 16.6 µM; in the experiment on EKVX NSCLC it was 27.3 µM; in the experiment on HOP-92 NSCLC, 6.4 µM; in the experiment with IGROV1 ovarian, 12.9 µM; in the experiment with K-562 leukemia, more than 100 µM. For the same compound, the TGI is 7.06 µM in the experiment with LOX IMVI melanoma, 12 µM with NCI-H460 lung, more than 57.5 µM with SK-OV-3 ovarian and 13 µM in the experiment with SN12C renal.
For the compound `COc1ccc(/C(C#N)=C/c2ccc(OC)c(OC)c2)cc1`, the TGI with 786-0 renal, with DU-145 prostate, in the experiment on EKVX NSCLC, in the experiment with HOP-92 NSCLC, in the experiment on IGROV1 ovarian and with K-562 leukemia was more than 100 µM each time. The TGI with LOX IMVI melanoma, in the experiment on NCI-H460 lung, in the experiment with SK-OV-3 ovarian and with SN12C renal was more than 100 µM throughout.
Turning to `O=C(NCc1ccc(Cn2c(=O)sn(-c3ccccc3)c2=O)cc1)OCc1ccc2c(Br)cc(Br)c(O)c2n1`, the GI50 in the experiment on 786-0 renal was 0.495 µM; in the experiment with DU-145 prostate, 0.992 µM; in the experiment on EKVX NSCLC, 1.5 µM; in the experiment with HOP-92 NSCLC, 0.379 µM; with IGROV1 ovarian, 0.428 µM; in the experiment on K-562 leukemia it was 0.322 µM. Besides, the GI50 in the experiment with LOX IMVI melanoma is 0.171 µM; with NCI-H460 lung it was 1.48 µM; with SK-OV-3 ovarian it was 3.61 µM; in the experiment on SN12C renal, 0.703 µM. Further, the TGI with 786-0 renal is 1.08 µM; with DU-145 prostate, 2.19 µM; in the experiment with EKVX NSCLC, 3.12 µM; in the experiment on HOP-92 NSCLC it was 1.84 µM; in the experiment on IGROV1 ovarian, 1.58 µM; with K-562 leukemia, more than 100 µM. Further, the TGI in the experiment on LOX IMVI melanoma turned out to be 0.348 µM; with NCI-H460 lung it was 3.37 µM; in the experiment with SK-OV-3 ovarian it was 14 µM; in the experiment with SN12C renal, 2.06 µM.
Consider `Oc1[nH]c2ccc(Cl)cc2c1/C=c1/ccc2c(c1)N=C(c1ccc(F)cc1)N=2`, for which the GI50 in the experiment on 786-0 renal is 1.8 µM; in the experiment with DU-145 prostate, 2.53 µM; in the experiment on EKVX NSCLC, 3.37 µM; with HOP-92 NSCLC, 11.7 µM; in the experiment with IGROV1 ovarian it was 2.12 µM; in the experiment with K-562 leukemia, 2.11 µM. The GI50 was 1.63 µM in the experiment with LOX IMVI melanoma, 2.05 µM in the experiment on NCI-H460 lung, 7.07 µM in the experiment with SK-OV-3 ovarian and 2.71 µM with SN12C renal. For the same compound, the TGI in the experiment on 786-0 renal was 3.9 µM; with DU-145 prostate, 5.06 µM; in the experiment on EKVX NSCLC it was 15.9 µM; with HOP-92 NSCLC, 26.9 µM; in the experiment on IGROV1 ovarian, 4.42 µM; in the experiment on K-562 leukemia, 4.48 µM. Further, the TGI was found to be 3.01 µM with LOX IMVI melanoma, 4.52 µM in the experiment with NCI-H460 lung, 19.1 µM in the experiment on SK-OV-3 ovarian and 10.2 µM in the experiment with SN12C renal.
For `NC(=O)c1ccc2nc(-c3ccc(Oc4ccc(Cl)cc4)cc3)[nH]c2c1`, the GI50 with 786-0 renal is 48 µM and 16.1 µM; with DU-145 prostate it was 35 µM and 13 µM; in the experiment with EKVX NSCLC, more than 75 µM; in the experiment with HOP-92 NSCLC, more than 75 µM; in the experiment on IGROV1 ovarian, 30.9 µM and 15.9 µM; with K-562 leukemia, 37.8 µM and 10.3 µM. For the same compound, the GI50 in the experiment on LOX IMVI melanoma is 17.9 µM and 15.6 µM; with NCI-H460 lung, 23.4 µM and 14.1 µM; in the experiment on SK-OV-3 ovarian, 17.7 µM and 23.1 µM; in the experiment on SN12C renal, 39.4 µM and 14.6 µM. The TGI is 75 µM and 39.4 µM in the experiment with 786-0 renal; 75 µM and 29.8 µM in the experiment on DU-145 prostate; more than 75 µM with EKVX NSCLC; more than 75 µM in the experiment on HOP-92 NSCLC; 75 µM and 36.2 µM in the experiment on IGROV1 ovarian; 75 µM and 88.3 µM in the experiment on K-562 leukemia. In addition, the TGI is 75 µM and 36.7 µM with LOX IMVI melanoma; 75 µM and 32.7 µM in the experiment on NCI-H460 lung; 75 µM and 48.2 µM with SK-OV-3 ovarian; 75 µM and 30.2 µM in the experiment on SN12C renal.
